Assay results from patent publication US11730769B2, “Compositions and methods for Williams Syndrome (WS) therapy” (MASSACHUSETTS INSTITUTE OF TECHNOLOGY, priority 2017, dated 2023).
Entries after “also recorded” stand apart in the source; their conditions may differ. Like-named read-outs stand apart in the source and are kept apart here.

Key:
[1] = test system: Gtf2i cKO mice; assay: Evoked field potential recordings in corpus callosum; assay type: in vivo; details: acute 4-AP administration
Procedure: In vivo evoked field potential recording in corpus callosum was referenced to that from in vitro studies (69, 70). Animals were anesthetized with urethane (1,000 mg/kg) and placed on a stereotaxic instrument. Body temperature was maintained by thermostat at 37.5-38° C. Craniotomy was performed and dura was kept intact. Stainless steel stimulation electrode (300˜500 kOhm, WPI) was positioned in corpus callosum in left hemisphere (1.5 mm posterior to Bregma, 1 mm lateral from midline, 1,000˜1,300 μm beneath cortical surface), and tungsten recording electrode (2˜3 MOhm, FHC) was positioned in corpus callosum at same coronal plane in right hemisphere (1.5 mm posterior to Bregma, 1 mm from midline, 1,000˜1,300 μm beneath cortical surface). Electrical stimulation (0˜200 uA, 0.2 ms pulse width, 0.2 Hz) was delivered while both positions of stimulation and recording electrodes were slightly adjusted to optimize signal. Signals were filtered at 0.1-3,000 Hz and gained at 1,000 times (Model 1700, A-M Systems), digitized and sampled at 10,000 Hz (Digidata 1440A, Molecular Devices), and analyzed offline (Clampfit). […] Response amplitude was determined by measuring the vertical distance from negative peak to the tangent joining preceding and following positivities. […]

[2] = oral, non-sustained release, animals; cited from earlier work
[3] = cited from earlier work
[4] = test system: normal adult myelinated axons; details: cited from earlier work
[5] = patients with MS, all studies; cited from earlier work
[6] = test system: Gtf2i cKO mice; assay: Horizontal ladder walking test; assay type: in vivo; details: acute 4-AP 1 mg/kg i.p., three hours post administration
Procedure: Mice were tested for their ability to walk on a horizontal ladder with irregularly spaced rungs, following the procedure described previously (44). Animals were trained to cross the ladder until their performance achieved the plateau (with a forelimb error of 20% or less). The irregular pattern was changed from trial to trial during training. All trials were video recorded with Hotshot e64 and paw placement was analyzed. The paw placement on rungs were categorized as Hit (platar contact and digits closure), Miss (paw falls between rungs) and Slip (imprecise contact with one or few digits). Experimenter was blinded to genotypes.
Mice were habituated to needle injections (i.p.) for three days before behavioral tests, by two i.p. injections of 200 μL of saline administered per day. […] All behavioral tests were therefore accomplished three hours post systemic administration. Saline-injected mice in each genotype (Control or cKO mice) were referred as the baseline group for the treatment group, which was injected with 4-AP. Experimenter was blinded to genotypes.

[7] = test system: Gtf2i cKO mice; assay: Three-chamber social preference test; assay type: in vivo; details: acute 4-AP 1 mg/kg i.p., three hours post administration
Procedure: Stranger mice were wildtype S129 Sv males (Jackson Laboratory) with matched age and body weight to test mice. Stranger mice were habituated by placing them inside an inverted wire cup for 30 min, two sessions per day for three consecutive days before tests. Each stranger mouse was used a maximum of two times per day. The social test apparatus was made of a clear Plexiglas box (65 cm (L)×44 cm (W)×30 cm (H)) with a removable floor and partitions dividing the box into left, center, and right chambers. The center chamber (21 cm×22 cm) was half the width of the left and right chambers (each is 21 cm×44 cm). These three chambers were interconnected with 5 cm openings between each chamber that could be closed or opened manually with a lever-operated door. The inverted wire cups containing the stranger mice were cylindrical, 10 cm in height, with a bottom diameter of 10 cm and with metal bars spaced 0.8 cm apart. A weighted cup was placed on top of the inverted wire cups to prevent the test mice from climbing onto the wire cup. […] Then, experimenter blinded to genotypes analyzed for timespent in close proximity to the stranger mouse or object was analyzed using the Noldus Ethovison XT software. Social preference index was calculated as follows: (time in close interaction with stranger)/(time in close interaction with object). […]

[8] = test system: Shaker channels; details: at concentration of 1 mM; cited from earlier work
[9] = test system: chronically injured spinal cord of guinea pigs; details: cited from earlier work
[10] = test system: Gtf2i cKO mice; assay: Intra-cortical microstimulation (ICMS) and EMG recording (corticospinal output); assay type: in vivo; details: acute 4-AP 2 mg/kg i.p., test 30 to 60 minutes after injection; cKO and control mice
Procedure: ICMS and EMG recording protocol was adopted from previous studies (71, 72). Each animal was anesthetized with ketamine-xylazine (100 mg/kg ketamine, 10 mg/kg xylazine, i.p.). Anesthesia level was maintained at a steady level to that animal was unresponsive to toe pinch while muscle tone was present.
A digital stereotaxic frame was used to mount the animal's head and guide stimulation electrode (stainless steel, 0.5 MOhm; World Precision Instruments) over an array of motor cortical sites (0.9 mm caudal and 0.6 mm rostral to Bregma, 0.9 mm to 1.8 mm lateral to midline, with 300 μm spacing between sites). Stimulation electrode was inserted into the cortex at 500 μm depth, targeting layer V motor neurons. The exposed brain area was immersed with silicon oil to avoid dehydration. Electrical stimulation (biphasic, 0.2 ms pulse width, 333 Hz, 45 ms) was adjusted between 100 to 300 μA and located at the position that has the lowest threshold to trigger EMG signal. Stimulation intensity of two folds of threshold was then used for EMG recording and analysis. To perform EMG recording, an incision was made on hindlimb to expose the muscles while fascia remained intact. […] EMG signals were acquired using differential AC amplifier (1700, A-M Systems, WA) with 10-1000 Hz bandpass filter, sampled at 5 kHz using a digitizer (Digidata 1440A, Axon Instruments), and analyzed by pClamp Software. […]

[11] = cited from earlier work; remark: listed apart in the source
[12] = cited from earlier work; remark: listed apart in the source
[13] = test system: socially isolated mice; details: cited from earlier work
[14] = test system: Gtf2i cKO mice; assay: Number of myelinating oligodendrocytes (immunofluorescence); assay type: in vivo; details: clemastine 10 mg/kg daily by gastric gavage for 14 days
Procedure: Basic immunofluorescence procedure was used as previously described (68). Mice were deeply anesthetized with isoflurane and transcardially perfused with 15 ml ice-cold PBS solution followed by 15 ml fresh ice-cold 4% paraformaldehyde (PFA) in PBS. Brains were dissected and kept in 4% PFA overnight at 4° C. and then sectioned at 100 μm thickness by vibratome (Leica). Floating brain slices were washed 3 times, 5 min each, with PBS and permeabilized with 1.2% Triton X-100 in PBS for 15 min at room temperature. Slices were then washed 3 times, 5 min each, followed by blocking with 5% normal goat serum, 2% BSA, 0.2% Triton X-100 in PBS for 1 h at room temperature. Primary antibodies diluted in blocking buffer were applied to sections overnight at 4° C. […]
To quantify cellular properties in the cortex, images were taken by an experimenter blinded to genotypes with a 10× magnification at the motor cortex area at bregma 0.5 mm. […] The midline of the CC was imaged at the same bregma, using a 40× magnification, and the whole depth of the CC was imaged by taking 10 images as part of a Z-stack serial imaging, and then all images were stacked together to a single image which was then analyzed for quantification. Cell numbers were quantified blindly with automation using ImageJ. […] The pixel intensity of H3ac and H3K9me3 was quantified using ImageJ, as was previously described (37). […]

[15] = target: P/Q-type calcium channels (Homo sapiens, UniProt O00555); details: read-out: EC50 for activation of P/Q-type calcium channels; cited from earlier work
Sequence of P/Q-type calcium channels (O00555 whole entry): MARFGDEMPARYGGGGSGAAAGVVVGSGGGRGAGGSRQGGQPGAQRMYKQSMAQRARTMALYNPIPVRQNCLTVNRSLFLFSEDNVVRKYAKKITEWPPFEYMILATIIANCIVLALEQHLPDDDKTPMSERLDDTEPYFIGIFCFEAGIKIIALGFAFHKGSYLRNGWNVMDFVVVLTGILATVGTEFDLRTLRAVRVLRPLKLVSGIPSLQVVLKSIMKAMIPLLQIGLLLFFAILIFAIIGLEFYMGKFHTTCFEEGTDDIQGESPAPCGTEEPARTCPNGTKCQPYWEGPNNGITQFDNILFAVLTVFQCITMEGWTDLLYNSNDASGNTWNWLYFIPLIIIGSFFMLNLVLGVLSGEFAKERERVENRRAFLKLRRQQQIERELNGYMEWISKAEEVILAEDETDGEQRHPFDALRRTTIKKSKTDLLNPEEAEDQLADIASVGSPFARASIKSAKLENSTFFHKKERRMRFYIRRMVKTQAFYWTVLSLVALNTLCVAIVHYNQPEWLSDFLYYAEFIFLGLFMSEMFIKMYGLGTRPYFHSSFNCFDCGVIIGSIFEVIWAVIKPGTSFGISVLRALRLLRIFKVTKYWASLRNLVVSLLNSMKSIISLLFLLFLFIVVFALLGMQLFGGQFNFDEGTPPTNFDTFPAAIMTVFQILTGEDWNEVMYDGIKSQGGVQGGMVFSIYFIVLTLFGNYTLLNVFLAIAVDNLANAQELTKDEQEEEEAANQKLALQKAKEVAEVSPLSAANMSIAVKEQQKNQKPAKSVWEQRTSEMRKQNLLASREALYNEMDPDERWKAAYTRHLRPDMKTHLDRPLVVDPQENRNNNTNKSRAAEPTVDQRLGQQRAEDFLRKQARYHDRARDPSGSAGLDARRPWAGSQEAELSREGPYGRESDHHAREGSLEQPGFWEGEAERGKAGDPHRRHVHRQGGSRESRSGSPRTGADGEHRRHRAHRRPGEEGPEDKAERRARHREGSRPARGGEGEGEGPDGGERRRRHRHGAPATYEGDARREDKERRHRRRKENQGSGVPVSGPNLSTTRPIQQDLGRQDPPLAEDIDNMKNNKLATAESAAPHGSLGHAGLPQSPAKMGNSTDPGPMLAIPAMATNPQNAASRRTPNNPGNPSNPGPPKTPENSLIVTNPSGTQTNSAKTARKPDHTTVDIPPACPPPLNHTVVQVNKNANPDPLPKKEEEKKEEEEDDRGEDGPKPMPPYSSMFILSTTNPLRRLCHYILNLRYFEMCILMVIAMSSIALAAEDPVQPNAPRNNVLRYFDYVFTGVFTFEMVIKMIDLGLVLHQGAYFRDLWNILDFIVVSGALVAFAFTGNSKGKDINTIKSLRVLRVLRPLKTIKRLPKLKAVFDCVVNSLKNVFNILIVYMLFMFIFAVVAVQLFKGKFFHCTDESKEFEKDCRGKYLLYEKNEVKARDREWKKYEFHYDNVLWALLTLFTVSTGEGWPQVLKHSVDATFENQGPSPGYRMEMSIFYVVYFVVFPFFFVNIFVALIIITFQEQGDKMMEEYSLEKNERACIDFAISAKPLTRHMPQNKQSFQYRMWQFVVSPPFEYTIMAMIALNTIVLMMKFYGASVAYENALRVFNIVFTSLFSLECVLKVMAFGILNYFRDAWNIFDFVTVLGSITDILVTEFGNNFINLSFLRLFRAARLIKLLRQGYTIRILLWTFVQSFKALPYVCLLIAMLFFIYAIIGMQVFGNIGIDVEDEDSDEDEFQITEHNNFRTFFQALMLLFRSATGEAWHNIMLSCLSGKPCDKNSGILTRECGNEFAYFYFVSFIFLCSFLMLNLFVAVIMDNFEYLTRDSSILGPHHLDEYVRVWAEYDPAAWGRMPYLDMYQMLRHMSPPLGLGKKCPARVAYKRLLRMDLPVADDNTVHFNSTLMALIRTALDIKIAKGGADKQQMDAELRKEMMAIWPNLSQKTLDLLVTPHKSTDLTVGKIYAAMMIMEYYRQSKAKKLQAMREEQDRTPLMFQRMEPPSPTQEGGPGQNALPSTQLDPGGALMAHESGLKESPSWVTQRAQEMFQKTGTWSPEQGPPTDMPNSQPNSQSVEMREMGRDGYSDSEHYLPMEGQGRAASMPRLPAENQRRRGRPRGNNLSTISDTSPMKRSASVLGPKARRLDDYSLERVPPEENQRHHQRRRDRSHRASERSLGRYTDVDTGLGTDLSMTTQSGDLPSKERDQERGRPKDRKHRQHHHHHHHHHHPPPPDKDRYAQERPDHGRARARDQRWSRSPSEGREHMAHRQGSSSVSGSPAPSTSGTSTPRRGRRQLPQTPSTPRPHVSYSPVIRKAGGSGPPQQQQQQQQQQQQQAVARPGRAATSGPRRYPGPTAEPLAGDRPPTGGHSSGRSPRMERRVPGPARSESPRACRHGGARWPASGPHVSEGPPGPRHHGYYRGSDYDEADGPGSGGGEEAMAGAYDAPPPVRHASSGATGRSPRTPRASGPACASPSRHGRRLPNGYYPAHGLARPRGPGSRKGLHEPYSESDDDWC
Sequence of P/Q-type calcium channels (P54284 whole entry partner): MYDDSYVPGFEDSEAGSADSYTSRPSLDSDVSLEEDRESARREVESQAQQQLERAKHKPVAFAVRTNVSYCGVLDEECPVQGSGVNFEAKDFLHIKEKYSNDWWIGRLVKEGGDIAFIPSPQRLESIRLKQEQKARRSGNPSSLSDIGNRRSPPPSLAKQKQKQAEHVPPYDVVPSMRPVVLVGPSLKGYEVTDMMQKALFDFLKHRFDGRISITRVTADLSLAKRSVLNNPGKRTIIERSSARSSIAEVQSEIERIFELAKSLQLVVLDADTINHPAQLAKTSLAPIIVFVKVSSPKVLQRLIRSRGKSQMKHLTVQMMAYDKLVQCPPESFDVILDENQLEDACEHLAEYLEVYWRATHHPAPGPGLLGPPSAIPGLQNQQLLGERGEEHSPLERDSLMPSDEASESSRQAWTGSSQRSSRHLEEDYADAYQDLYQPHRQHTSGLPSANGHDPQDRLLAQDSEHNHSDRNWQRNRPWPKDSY
Sequence of P/Q-type calcium channels (P54289 25-946 partner limits assumed): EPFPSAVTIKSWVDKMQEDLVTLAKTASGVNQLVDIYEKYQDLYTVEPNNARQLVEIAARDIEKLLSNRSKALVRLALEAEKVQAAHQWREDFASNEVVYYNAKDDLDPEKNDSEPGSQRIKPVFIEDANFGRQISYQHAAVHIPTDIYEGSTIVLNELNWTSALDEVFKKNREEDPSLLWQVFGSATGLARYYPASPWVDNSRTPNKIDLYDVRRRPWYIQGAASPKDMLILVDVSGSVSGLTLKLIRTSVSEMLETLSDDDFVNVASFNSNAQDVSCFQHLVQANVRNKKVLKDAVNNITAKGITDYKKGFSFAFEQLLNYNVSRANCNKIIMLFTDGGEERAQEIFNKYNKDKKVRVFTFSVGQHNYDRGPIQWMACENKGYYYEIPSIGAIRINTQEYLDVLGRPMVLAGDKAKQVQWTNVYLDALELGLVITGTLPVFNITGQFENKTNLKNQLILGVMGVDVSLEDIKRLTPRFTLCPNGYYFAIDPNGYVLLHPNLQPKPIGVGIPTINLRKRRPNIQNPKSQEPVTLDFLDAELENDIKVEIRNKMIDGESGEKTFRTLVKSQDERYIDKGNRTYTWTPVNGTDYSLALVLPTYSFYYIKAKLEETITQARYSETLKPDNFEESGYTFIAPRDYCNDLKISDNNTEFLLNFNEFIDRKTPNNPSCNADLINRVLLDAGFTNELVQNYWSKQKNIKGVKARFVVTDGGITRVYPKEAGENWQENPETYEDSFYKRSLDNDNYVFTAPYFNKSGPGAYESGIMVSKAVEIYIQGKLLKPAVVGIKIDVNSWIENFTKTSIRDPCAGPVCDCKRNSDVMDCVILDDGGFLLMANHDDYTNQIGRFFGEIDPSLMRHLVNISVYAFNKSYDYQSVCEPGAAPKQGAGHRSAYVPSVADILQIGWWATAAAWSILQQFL
Sequence of P/Q-type calcium channels (P54289 947-1103 partner limits assumed): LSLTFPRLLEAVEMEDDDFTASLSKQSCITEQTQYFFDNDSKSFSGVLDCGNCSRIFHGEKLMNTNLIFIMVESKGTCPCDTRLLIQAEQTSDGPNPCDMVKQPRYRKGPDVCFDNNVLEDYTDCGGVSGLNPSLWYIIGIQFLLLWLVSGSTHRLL

[16] = target: N-type calcium channels (Homo sapiens, UniProt Q00975); details: read-out: EC50 for activation of N-type calcium channels; cited from earlier work
[17] = test system: L-type calcium channels; details: read-out: EC50 for activation of L-type calcium channels; cited from earlier work
[18] = in vivo; cited from earlier work
[19] = phosphate salt; does not require refrigeration; cited from earlier work
[20] = test system: rats; details: cited from earlier work

## Nc1ccncc1 [4-AP, 4-aminopyridine]
[1]
  Peak amplitude of evoked potential in corpus callosum: increased following 4-AP acute administration and normalized to control levels
  Peak latency of evoked potential in corpus callosum: significantly decreased and normalized to control levels
[2]
  Time of peak plasma concentrations: within one hour
[3]; 10 mg oral solution
  Cmax: 42.7 ng/mL
[3]; oral
  Absorption from the gastrointestinal tract: completely absorbed
[3]; two formulations of IR tablets
  Absolute bioavailability: 95%
[4]
  Concentrations causing gradual depolarization of the axon resting potential: above 1 mM
[4]; normal adult myelinated axons
  Concentrations at which the action potential shows little or no sensitivity: below 100 μM
[5]
  Incidence of adverse effects: less than 5%
[6]
  Fine motor skills, horizontal irregular ladder walking, forelimb and hindlimb: normalized fine motor skills; also recorded: rescued
[7]
  Social preference (index), three-chamber test: normalized social preference; also recorded: decreased and normalized to control levels
[8]
  Inhibition of Shaker channels: selectively and reversibly inhibits
[9]
  Most effective concentration: about 10 μM
[10]
  EMG peak amplitude (cortico-spinal tract): increased significantly; also recorded: increased following 4-AP acute administration
  EMG response latency (cortico-spinal tract): significantly shortened; also recorded: significantly decreased and normalized to control levels

## Nc1ccncc1N.O=P(O)(O)O [Amifampridine, pyridine-3,4-diamine]
[11]; 20° C.
  Solubility in water: 25 mg/mL
[11]
  Solubility in diethyl ether: only slightly
  Solubility in methanol, ethanol and hot water: readily soluble
[12]; 91 healthy subjects, after a fatty meal
  Time to maximum concentrations in blood plasma: 1.3 (±0.9) hours
[12]; 91 healthy subjects, without food
  Time to maximum concentrations in blood plasma: 0.6 (±0.25) hours
[12]; 91 healthy subjects
  Area under the curve (AUC): 117 ± 77 ng·h/mL
  Biological half-life: 2.5±0.7 hrs
[12]; N-acetyltransferase activity
  AUC increase in slow metabolizers as compared to fast metabolizers: up to 9 fold
[12]; human, in vivo
  Eliminated via kidneys and urine as N-acetylamifampridine: 74-81%
  Eliminated via kidneys and urine in unchanged form: 19%
[12]; oral
  Absorbed from the gut: 93-100%

## CN1CCCC1CCOC(C)(c1ccccc1)c1ccc(Cl)cc1 (stereo not shown) [Clemastine]
[13]; oral clemastine, prolonged social isolation
  Impaired myelination: rescued
[13]; oral, 2 weeks, adult mice following prolonged social isolation
  Social avoidance behavior: successfully reverse social avoidance behavior
[14]
  Number of myelinating oligodendrocytes (mOLs) in cortex and CC midline: normalized
[14]; listed as clemastine
  Number of myelinating oligodendrocytes (mOLs) in cortex and CC midline: significantly increased and normalized to control levels

## CCCn1cnc2c(NCc3ccc(C)s3)nc(N[C@H](CC)CO)nc21 [GV-58]
[15]
  EC50: 9.9 µM
[16]
  EC50: 6.8 µM
[17]
  EC50: > 100 µM

## CC[N+](CC)(CC)CC.[Br-] [TEA, Tetraethylammonium]
[18]
  Oral activity: not orally active

## Nc1ccncc1N.O=P(O)(O)O [amifampridine phosphate, 4-aminopyridine-3-ylammonium dihydrogen phosphate]
[11]; phosphate salt
  Solubility in water: readily soluble in water
[19]
  Stability: stable

## Opicinumab: fully human monoclonal antibody, LINGO-1 protein antagonist (Anti-Lingo-1)
[20]
  Remyelination: 90%
